Data as given in ChEMBL document CHEMBL1201862, “PubChem BioAssay data set” (2004).
Active and inactive are the calls of the source.

Tests used:
[1] = molecular target: T1, Cytochrome P450 1A2 (Homo sapiens, UniProt P05177);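 further: PubChem cytochrome P450 panel assay, CYP1A2 panel member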
T1 sequence (P05177 whole entry): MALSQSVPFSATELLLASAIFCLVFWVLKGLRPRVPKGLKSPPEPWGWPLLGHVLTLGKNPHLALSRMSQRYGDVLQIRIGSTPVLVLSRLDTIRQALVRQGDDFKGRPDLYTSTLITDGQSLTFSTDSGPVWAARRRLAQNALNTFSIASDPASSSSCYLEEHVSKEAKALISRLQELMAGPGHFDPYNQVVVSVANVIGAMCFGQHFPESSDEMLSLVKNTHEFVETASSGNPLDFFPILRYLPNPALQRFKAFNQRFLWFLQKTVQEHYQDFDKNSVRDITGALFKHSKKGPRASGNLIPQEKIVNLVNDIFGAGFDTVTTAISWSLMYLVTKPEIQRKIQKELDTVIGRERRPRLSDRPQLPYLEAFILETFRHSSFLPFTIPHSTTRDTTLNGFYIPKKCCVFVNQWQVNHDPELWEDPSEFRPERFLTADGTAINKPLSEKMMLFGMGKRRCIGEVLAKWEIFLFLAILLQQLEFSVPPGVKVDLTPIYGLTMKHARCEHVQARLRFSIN

[2] = molecular target: Cytochrome P450 2C19 (Homo sapiens, UniProt P33261); assay: Cytochrome panel assay with activity outcomes. Panel member name: p450-cyp2c19 Compounds with AC50 equal or less than 10 uM are considered active; assay type: functional
[3] = Luminescence Cell-Based Dose Retest to Confirm Inhibitors of Cancer Stem Cells. [Related pubchem assays (depositor defined):AID2717, AID2721]; assay type: functional; settings: Homo sapiens
[4] = test system: H9c2; assay: cells; assay type: functional, cell-based; settings: Rattus norvegicus, H9c2, Myocardium;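 further: confirmatory concentration-response retest of ultra-high-throughput screening hits for modulation of myocardial damage; cell death induced by hydrogen peroxide oxidative stress; compound pretreatment for 60 min then peroxide exposure for 2 h; potency is for protecting the cells against peroxide damage rather than for killing them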
[5] = Trypanosoma cruzi growth suppression in host cells – NIH3T3 host cells, beta-gal luminescence, confirmation (AID 2044); assay type: functional, cell-based;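 further: intracellular parasites grown in NIH/3T3 mouse fibroblasts as host cells; luminescent beta-galactosidase reporter signal from transgenic T. cruzi replicating inside host cells; inhibitors lower the luminescence signal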
[6] = NIH3T3 cell viability loss – ATP luminescence, mouse fibroblasts, counter-screen, dose response (AID 2010); assay type: functional, cell-based;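 further: cells exposed to compound for about 90 hours before reading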
[7] = viability of uninfected HEp-2 cells – cell-based, HTS, cytotoxicity control for RSV inhibitor project, dose response (AID 2410); assay type: functional; settings: human respiratory syncytial virus
[8] = molecular target: T2, Corticotropin-releasing factor receptor 2/Corticotropin-releasing factor-binding protein (Homo sapiens, UniProt P24387+Q13324); assay: activators of CRF receptor 2 with binding protein – uHTS hits, confirmation (AID 602473); assay type: functional; settings: read-out: EC50_Mean
T2 sequence (Q13324 whole entry): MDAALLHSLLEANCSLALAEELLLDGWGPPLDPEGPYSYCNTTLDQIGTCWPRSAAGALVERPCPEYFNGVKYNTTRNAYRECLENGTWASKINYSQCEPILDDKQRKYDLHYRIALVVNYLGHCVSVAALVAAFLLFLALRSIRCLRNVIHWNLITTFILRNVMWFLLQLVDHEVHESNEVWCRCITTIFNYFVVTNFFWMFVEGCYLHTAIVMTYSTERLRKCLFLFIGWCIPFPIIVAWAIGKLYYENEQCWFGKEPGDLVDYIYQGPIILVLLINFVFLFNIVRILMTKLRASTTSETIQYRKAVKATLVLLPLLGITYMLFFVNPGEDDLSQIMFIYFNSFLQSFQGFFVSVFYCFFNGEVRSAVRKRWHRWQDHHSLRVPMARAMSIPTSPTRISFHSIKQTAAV
T2 sequence (P24387 whole entry): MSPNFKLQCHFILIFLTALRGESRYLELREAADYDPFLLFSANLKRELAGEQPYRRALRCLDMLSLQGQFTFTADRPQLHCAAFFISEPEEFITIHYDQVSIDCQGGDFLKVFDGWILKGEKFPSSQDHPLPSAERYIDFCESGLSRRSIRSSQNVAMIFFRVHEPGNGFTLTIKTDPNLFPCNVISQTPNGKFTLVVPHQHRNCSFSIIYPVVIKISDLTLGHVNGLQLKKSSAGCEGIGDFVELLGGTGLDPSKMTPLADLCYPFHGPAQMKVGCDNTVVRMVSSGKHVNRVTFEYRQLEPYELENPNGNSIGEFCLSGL

[9] = test system: H4; assay: Luminescence Cell-Based Dose Response HTS to Identify Activators of 5'UTR Stem-Loop Driven Prion Protein mRNA Translation in H4 Neuroglioblastoma Cells. [Related pubchem assays: 1829 (Project Summary), 1814 (Primary HTS)]; assay type: functional; settings: Homo sapiens
[10] = Luminescence Cell-Based Dose Response HTS to Identify Activators of Luciferase Translation or Activity in H4 […] Cells. [Related pubchem assays: 1829 (Project Summary), 1814 (Primary HTS)]; assay type: functional
[11] = test system: Streptococcus; assay: GAS UMAA2166 growth inhibition – luminescence, BacTiterGlo, counter-screen for streptokinase expression inhibitor project, dose response (AID 1915); assay type: functional, organism-based;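 further: potency for reduction of bacterial viability or growth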
[12] = test system: Streptococcus sp. 'group A'; assay: Streptococcus pyogenes SK(-)GAS viability under kanamycin – luminescence, BacTiterGlo, confirmation, counter-screen for streptokinase expression inhibitor project, dose response (AID 1900); assay type: functional, organism-based
[13] = molecular target: T3, Streptokinase A (Streptococcus pyogenes serotype M1, UniProt P10520); assay: viability-normalized secreted streptokinase activity reduction – plasminogen activation absorbance, OD405, dose response (AID 1914); assay type: functional, Streptococcus pyogenes M1 GAS;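 further: secreted streptokinase activity via plasminogen activation per viability signal from cell pellet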
T3 sequence (P10520 whole entry): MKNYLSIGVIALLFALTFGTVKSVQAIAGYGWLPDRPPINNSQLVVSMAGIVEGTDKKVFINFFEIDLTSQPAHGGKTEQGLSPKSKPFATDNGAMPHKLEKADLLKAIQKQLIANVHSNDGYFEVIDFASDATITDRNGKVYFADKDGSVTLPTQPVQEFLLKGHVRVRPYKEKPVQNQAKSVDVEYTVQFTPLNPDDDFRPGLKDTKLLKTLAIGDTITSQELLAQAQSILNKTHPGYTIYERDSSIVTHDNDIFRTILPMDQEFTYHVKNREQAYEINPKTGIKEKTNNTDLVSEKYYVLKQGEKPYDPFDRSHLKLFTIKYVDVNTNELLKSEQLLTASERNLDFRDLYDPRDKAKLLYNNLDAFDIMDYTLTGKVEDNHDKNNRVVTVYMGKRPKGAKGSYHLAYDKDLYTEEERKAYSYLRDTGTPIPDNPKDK

[14] = molecular target: Cytochrome P450 2D6 (Homo sapiens, UniProt P10635);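 further: CYP2D6 member of a cytochrome P450 panel assay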
[15] = molecular target: Paired box protein Pax-8 (Homo sapiens, UniProt Q06710); assay: PAX8 transcriptional activity inhibition in RMG-I – RMG-I cells, luciferase, cherry-pick, dose response (AID 687027); assay type: functional, cell-based;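 further: luciferase reporter driven by Pax8 target thyroperoxidase promoter measured by SteadyGlo luminescence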
Chain of Paired box protein Pax-8 (Q06710 whole entry): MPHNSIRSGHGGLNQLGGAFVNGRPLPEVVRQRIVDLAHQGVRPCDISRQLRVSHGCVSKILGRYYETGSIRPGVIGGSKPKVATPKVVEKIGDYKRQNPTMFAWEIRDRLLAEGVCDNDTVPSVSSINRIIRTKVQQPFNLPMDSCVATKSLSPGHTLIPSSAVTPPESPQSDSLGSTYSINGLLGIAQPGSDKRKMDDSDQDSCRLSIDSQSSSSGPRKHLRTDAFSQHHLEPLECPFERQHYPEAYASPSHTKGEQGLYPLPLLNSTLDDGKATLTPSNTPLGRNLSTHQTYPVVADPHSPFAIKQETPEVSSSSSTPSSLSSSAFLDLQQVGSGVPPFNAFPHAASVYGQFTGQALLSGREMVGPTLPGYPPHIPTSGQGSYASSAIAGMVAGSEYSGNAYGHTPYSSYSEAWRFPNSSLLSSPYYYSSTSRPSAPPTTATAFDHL

Chain of Cytochrome P450 2C19 (P33261 whole entry): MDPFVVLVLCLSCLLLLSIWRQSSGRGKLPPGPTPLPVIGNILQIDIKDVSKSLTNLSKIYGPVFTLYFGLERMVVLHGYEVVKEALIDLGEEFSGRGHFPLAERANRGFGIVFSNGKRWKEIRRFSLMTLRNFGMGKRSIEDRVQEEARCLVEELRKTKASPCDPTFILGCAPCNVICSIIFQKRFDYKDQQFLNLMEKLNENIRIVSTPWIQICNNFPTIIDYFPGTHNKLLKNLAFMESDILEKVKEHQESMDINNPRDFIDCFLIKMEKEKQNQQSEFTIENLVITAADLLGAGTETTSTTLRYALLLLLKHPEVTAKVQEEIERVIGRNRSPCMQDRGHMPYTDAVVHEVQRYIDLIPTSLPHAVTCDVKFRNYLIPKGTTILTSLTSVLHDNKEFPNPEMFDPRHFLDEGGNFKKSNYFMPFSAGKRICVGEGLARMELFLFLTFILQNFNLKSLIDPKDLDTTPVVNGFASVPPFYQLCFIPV
Chain of Cytochrome P450 2D6 (P10635 whole entry): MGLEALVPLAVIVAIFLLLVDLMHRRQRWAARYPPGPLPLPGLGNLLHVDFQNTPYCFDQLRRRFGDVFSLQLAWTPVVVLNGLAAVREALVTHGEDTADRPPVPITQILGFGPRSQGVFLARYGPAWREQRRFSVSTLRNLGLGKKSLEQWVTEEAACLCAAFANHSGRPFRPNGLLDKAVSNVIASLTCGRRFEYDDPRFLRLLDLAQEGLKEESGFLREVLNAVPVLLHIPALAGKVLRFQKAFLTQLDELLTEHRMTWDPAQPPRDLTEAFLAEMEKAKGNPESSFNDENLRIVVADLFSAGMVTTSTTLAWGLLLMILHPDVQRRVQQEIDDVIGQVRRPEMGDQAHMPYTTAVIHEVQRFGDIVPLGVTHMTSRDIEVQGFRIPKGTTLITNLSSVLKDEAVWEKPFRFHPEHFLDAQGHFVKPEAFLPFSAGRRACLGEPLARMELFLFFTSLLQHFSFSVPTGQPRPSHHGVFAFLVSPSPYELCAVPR

**Q.** Which AC50 [1] does the source give for `COc1ccc(C(=O)N2CCC[C@@]3(CCN(Cc4ccccc4)C3)C2)cc1` here?
**A.** 12.6 µM (inconclusive)

**Q.** Which AC50 [1] does the source give for `Cc1cnc(CNc2cc(-c3ccoc3)ncn2)cn1` here?
**A.** 25.1 µM (inconclusive)

**Q.** Which AC50 ([2]; read-out: AC50) does the source give for `CCN(CCCNC(=O)C1CCN(S(=O)(=O)CC)CC1)c1cccc(C)c1` here?
**A.** 39.8 µM (inconclusive)

**Q.** And the AC50 [1]?
**A.** 31.6 µM (inconclusive)

**Q.** For `O=c1c(Cl)c(NCc2ccc(F)cc2)cnn1C12CC3CC(CC(C3)C1)C2`, which AC50 [3] is on record?
**A.** 0.913 µM (active)

**Q.** For `O=C(c1cc(-c2cccnc2)nc2ccc(Br)cc12)N1CCN(c2ncccn2)CC1`, which IC50 [4] is on record?
**A.** > 79 µM (inactive)

**Q.** Which AC50 [1] does the source give for `COCCn1c(=O)c(-c2ccc(Cl)cc2)nc2cnc(N3CCOCC3)nc21` here?
**A.** 1 µM (inconclusive)

**Q.** What does the source list for `COc1ccc(-c2oc3c4c(cc(OC)c3c(=O)c2CC=C(C)C)OC(C)(C)C=C4)c(OC)c1`?
**A.** EC50 [5]: 2.08 µM (active); AC50 [3]: 6.2 µM (active); EC50 [6]: > 60 µM (not active)

**Q.** With `c1cc2cc(-c3c(-c4ccc5c(c4)OCO5)noc3-c3ccsc3)ccc2[nH]1` as the compound, how does the CC50 [7] read?
**A.** 44.8 µM (active)

**Q.** And the AC50 [3]?
**A.** 1.69 µM (active)

**Q.** Which AC50 [1] does the source give for `COC(=O)[C@@H]1[C@@H]2C[C@H]3c4[nH]c5cc(OC)ccc5c4CCN3C[C@@H]2C[C@H](OC(=O)c2cc(OC)c(OC)c(OC)c2)[C@H]1OC` here?
**A.** 15.8 µM (inconclusive)

**Q.** Which EC50 [8] does the source give for `COc1ccc(CN(C(=O)c2nsc(Cl)c2Cl)C(C(=O)NC2CCCC2)c2ccc(OC)cc2)cc1` (configuration not stated) here?
**A.** > 53 µM (inactive)

**Q.** For `CC#CC(=O)N1CCC(C(=O)Nc2ccc(Oc3ccccc3)nc2)CC1`, which EC50 [9] is on record?
**A.** 73 µM (active)

**Q.** What about the EC50 [10] of the same compound?
**A.** 25.4 µM (active)

**Q.** Which AC50 [3] does the source give for `CC(=O)Nc1ccc(-c2csc(NC(=O)CCCc3cccs3)n2)cc1` here?
**A.** 7.57 µM (active)

**Q.** Which IC50 [4] does the source give for `COC(=O)c1cc(NC(=O)c2cc3ccccc3o2)cc(C(=O)OC)c1` here?
**A.** > 79 µM (inactive)

**Q.** For `Cn1cccc1C(=O)N1CCC2(CCCN(c3ccccc3)C2)CC1`, which AC50 [1] is on record?
**A.** 10 µM (inconclusive)

**Q.** With `COc1ccc(C(=O)COC(=O)Cc2nnc(O)c3ccccc23)c(OC)c1` as the compound, how does the IC50 [4] read?
**A.** > 79 µM (inactive)

**Q.** Which AC50 [3] does the source give for `CCCCNc1c(-c2ccc(OC)c(SC3CCCCC3)c2)nc2cc(C)ccn12` here?
**A.** 4.36 µM (active)

**Q.** And the EC50 [11]?
**A.** 10.1 µM (active)

**Q.** What about the EC50 [12] of the same compound?
**A.** 3.09 µM (active)

**Q.** What about the EC50 [13] of the same compound?
**A.** 9.9 µM (active)

**Q.** Which AC50 [1] does the source give for `Cc1ccc(-n2nnnc2C(=Cc2ccc(N(C)C)cc2)c2nnnn2-c2ccc(C)cc2)cc1` here?
**A.** 12.6 µM (inconclusive)

**Q.** What about the AC50 [14] of the same compound?
**A.** 15.8 µM (inconclusive)

**Q.** Which EC50 [8] does the source give for `CC(C)(C)C1COc2ccccc2N1C(=O)c1ccccc1Cl` (configuration not stated) here?
**A.** 11.3 µM (active)

**Q.** For `CCCN1CCc2c(sc(NC(=O)c3ccc(S(=O)(=O)N(C)c4ccccc4)cc3)c2C(N)=O)C1`, which EC50 [8] is on record?
**A.** 4.43 µM (active)

**Q.** For `COc1ccc(/C=C(\C#N)C(=O)c2c(C)[nH]c3ccccc23)cc1OC`, which IC50 [4] is on record?
**A.** > 79 µM (inactive)

**Q.** With `Oc1nc2cc(F)ccc2c2ccc(F)cc12` as the compound, how does the IC50 [4] read?
**A.** > 79 µM (inactive)

**Q.** Which IC50 [4] does the source give for `CCN(CC)C(=O)c1ccc(-c2nnc(Nc3ccc(O)cc3)c3ccccc23)cc1` here?
**A.** 14.2 µM (active)

**Q.** For `O=C(O)[C@@H]1CCCN1Cc1cc2ccccc2c2ccccc12`, which AC50 [1] is on record?
**A.** 6.31 µM (inconclusive)

**Q.** For `CC(C)(C)OC(=O)NCCCCCNC(=O)c1[nH]cnc1C(=O)Nc1cc(Br)ccc1F`, which IC50 [4] is on record?
**A.** > 79 µM (inactive)

**Q.** For `CC(=O)c1ccc(-c2cnc3c(NC=O)cc(-c4cccc(C(=O)N(C)C)c4)cn23)cc1`, which IC50 [4] is on record?
**A.** 11.2 µM (active)

**Q.** For `Cc1nn(-c2ccccc2)c(C)c1/C=N/NC(=O)c1cc(C(C)(C)C)[nH]n1`, which IC50 [4] is on record?
**A.** 12.2 µM (active)

**Q.** For `O=C(N/N=C\c1ccccn1)C1COc2cc3ccccc3cc2O1` (configuration not stated), which IC50 [4] is on record?
**A.** > 79 µM (inactive)

**Q.** Which AC50 [15] does the source give for `Cc1ccc(S(=O)(=O)N(C)C[C@H]2Oc3c(NC(=O)Nc4ccc(F)cc4)cccc3C(=O)N([C@@H](C)CO)C[C@H]2C)cc1` here?
**A.** 11.5 µM (active)

**Q.** Which AC50 [3] does the source give for `N=C(N/N=C\c1ccc(Br)cc1)N/N=C\c1ccc(Br)cc1` here?
**A.** 3.04 µM (active)

**Q.** What about the EC50 [11] of the same compound?
**A.** 5.33 µM (active)

**Q.** And the EC50 [12]?
**A.** 2.39 µM (active)

**Q.** Which AC50 [2] does the source give for `CN(C(=O)CCCOc1ccc2[nH]c(=O)ccc2c1)C1CCCCC1` [CILOSTAMIDE] here?
**A.** inconclusive

**Q.** What about the AC50 [1] of the same compound?
**A.** 31.6 µM (inconclusive)
